Data reported in PubChem BioAssay (NCI).
Several values for one entry are separate records, joined by “and”; a condition that tells them apart may be missing. Equal values may be shown once.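 Where inhibition never reached the appropriate level, the endpoint shown equals the highest concentration tested. Otherwise, values were interpolated linearly from a five-concentration, 48-hour dose response in 96-well plates. The concentration for 50% growth inhibition is given as GI50. At the TGI there is no net growth.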

Experiments:
Assay in all cases: inhibition of tumour cell growth, NCI panel, 48 h
[1] = system: HOP-92 NSCLC
[2] = system: EKVX NSCLC
[3] = system: MDA-N
[4] = system: SK-MEL-28 melanoma
[5] = system: BT-549 breast
[6] = system: SK-MEL-2 melanoma
[7] = system: SW-620 colon
[8] = system: RXF 393 renal
[9] = system: CCRF-CEM leukemia
[10] = system: K-562 leukemia
[11] = system: PC-3 prostate
[12] = system: MOLT-4 leukemia
[13] = system: NCI-H226 lung
[14] = system: DU-145 prostate
[15] = system: T-47D breast
[16] = system: NCI-H522 lung
[17] = system: IGROV1 ovarian
[18] = system: A498 renal
[19] = system: SF-295 CNS
[20] = system: SR leukemia
[21] = system: SNB-75 CNS
[22] = system: HL-60(TB) leukemia
[23] = system: HS 578T breast
[24] = system: SF-268 CNS
[25] = system: HT29 colon
[26] = system: ACHN renal
[27] = system: CAKI-1 renal
[28] = system: U251 CNS
[29] = system: A549 NSCLC
[30] = system: SNB-19 CNS
[31] = system: HCT-116 colon
[32] = system: UO-31 renal
[33] = system: HCC-2998 colon
[34] = system: SK-MEL-5 melanoma
[35] = system: SF-539 CNS
[36] = system: OVCAR-3 ovarian
[37] = system: TK-10 renal
[38] = system: OVCAR-5 ovarian
[39] = system: HOP-62 NSCLC
[40] = system: SN12C renal
[41] = system: OVCAR-4 ovarian
[42] = system: M14 melanoma
[43] = system: 786-0 renal
[44] = system: NCI-H23 lung
[45] = system: MALME-3M melanoma
[46] = system: NCI/ADR-RES ovarian
[47] = system: MCF7 breast
[48] = system: MDA-MB-435
[49] = system: NCI-H460 lung
[50] = system: OVCAR-8 ovarian
[51] = system: KM12 colon
[52] = system: RPMI-8226 leukemia
[53] = system: HCT-15 colon
[54] = system: UACC-62 melanoma
[55] = system: UACC-257 melanoma
[56] = system: LOX IMVI melanoma
[57] = system: COLO 205 colon
[58] = system: SK-OV-3 ovarian

For `O=c1[nH]cc(F)c(=O)[nH]1`, the TGI [1] was > 100 µM and 2040 µM and > 2500 µM, the TGI [2] was > 100 µM and 2250 µM and > 2500 µM and the TGI [3] was 2390 µM and > 2500 µM. The GI50 [4] was 5.99 µM and 1.5 µM, the GI50 [5] was 7.32 µM and 6.94 µM and 27.1 µM and the TGI [5] was > 100 µM and 2090 µM and > 1390 µM. The TGI [6] was > 100 µM and 2190 µM and > 2500 µM, the TGI [7] was > 100 µM and 2440 µM and > 2360 µM and the GI50 [8] was 25.9 µM and 2.91 µM and 23.8 µM. For the same molecule, the GI50 [9] was 9.86 µM and 8.53 µM, the TGI [9] was 1990 µM and > 1040 µM and the GI50 [10] was 4.75 µM and 12 µM. The TGI [10] was 2190 µM and > 1830 µM, the TGI [11] was > 100 µM and 2250 µM and > 2500 µM and the GI50 [12] was 6.25 µM and 0.871 µM. The GI50 [13] was 23.9 µM and 59.6 µM and 186 µM, the TGI [13] was > 100 µM and 2170 µM and > 2500 µM and the TGI [14] was > 100 µM and 2160 µM and > 2500 µM. For the same molecule, the GI50 [15] was 7.97 µM and 9.73 µM and 17.6 µM, the GI50 [16] was 11 µM and 11.5 µM and 82.9 µM and the GI50 [17] was 6.13 µM and 2.37 µM and 20.6 µM. The GI50 [18] was 4.81 µM and 5.2 µM, the GI50 [19] was 6.45 µM and 0.721 µM and the GI50 [20] was 1.26 µM and 0.514 µM. For the same molecule, the TGI [20] was > 100 µM and > 33.4 µM and 609 µM, the TGI [21] was > 100 µM and 1990 µM and 2430 µM and the TGI [22] was > 100 µM and 1560 µM and 298 µM. The GI50 [23] was > 100 µM and 14.3 µM, the TGI [23] was > 100 µM and 2250 µM and > 1170 µM and the TGI [24] was > 100 µM and 2280 µM and > 2500 µM.

For `C/C(=N\Nc1ncnc2ccccc12)c1ccccn1`, the TGI [25] was over 46.6 µM, the TGI [26] was 8.46 µM and the TGI [27] was 1.67 µM. The TGI [28] was 34.4 µM, the TGI [29] was 32.6 µM and the TGI [30] was 59.1 µM. For the same molecule, the TGI [1] was 7.75 µM, the TGI [2] was over 52.6 µM and the TGI [3] was 27.5 µM. The TGI [31] was 13.9 µM, the TGI [4] was 45.6 µM and the TGI [5] was 35.5 µM. For the same molecule, the TGI [6] was 33.9 µM, the TGI [7] was 45.6 µM and the TGI [32] was 1.75 µM. It also gave a TGI [8] of 17.3 µM, a TGI [33] of 36 µM and a TGI [34] of 13.2 µM. The TGI [10] was over 4.64 µM, the TGI [35] was 3.29 µM and the TGI [11] was 31.6 µM. It also gave a TGI [36] of 12.8 µM, a TGI [37] of 18.6 µM and a TGI [12] of over 9.41 µM. It also gave a TGI [13] of 1.13 µM, a TGI [38] of 64.6 µM and a TGI [14] of 13.7 µM. For the same molecule, the TGI [15] was 20.7 µM, the TGI [39] was 1.07 µM and the TGI [16] was 1.53 µM. For the same molecule, the TGI [17] was 2.84 µM, the TGI [40] was 6.71 µM and the TGI [41] was over 51.5 µM. The TGI [42] was 33 µM, the TGI [43] was 12.7 µM and the TGI [44] was 16.4 µM. It also gave a TGI [45] of 1.58 µM, a TGI [18] of 16.4 µM and a TGI [19] of 17.9 µM. It also gave a TGI [46] of 0.551 µM, a TGI [47] of 25.1 µM and a TGI [48] of 33 µM. The TGI [49] was 21.2 µM, the TGI [50] was 2.41 µM and the TGI [51] was 22.1 µM. The TGI [52] was 1.62 µM, the TGI [53] was over 56.8 µM and the TGI [21] was 39.7 µM. For the same molecule, the TGI [54] was 3.22 µM, the TGI [55] was 8.65 µM and the TGI [22] was 10.7 µM. For the same molecule, the TGI [56] was 5.45 µM, the TGI [23] was 47.5 µM and the TGI [57] was 17.9 µM. It also gave a TGI [24] of 7.2 µM and a TGI [58] of 4.03 µM.
